Experimental data: PubChem BioAssay AID1963837 (Molecular Pharmacology Branch, DTP, NCI, 2024)

System: 843126-344-R-J1-PDC complex spheroid viability
Assay: Anticancer human tumor 843126-344-R-J1-PDC patient-derived melanoma cell line growth inhibition [POLQ]
Details: for IC50: curve of first compound; for viability, T/C: stronger effect = lower value
Outline: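 Growth inhibition in 3D: complex spheroids (tumor PDC, HUVEC, MSC) treated with POLQ inhibitor combinations; where Cmax unknown, highest tested concentration 10 microM, except SN-38 at 1 microM.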

[1] = second compound 0.0316 µM, first compound 0.0316 µM
[2] = second compound 0.0316 µM, first compound 0.1 µM
[3] = second compound 0.0316 µM, first compound 0.316 µM
[4] = second compound 0.0316 µM, first compound 1 µM
[5] = second compound 0.1 µM, first compound 0.0316 µM
[6] = second compound 0.1 µM, first compound 0.1 µM
[7] = second compound 0.1 µM, first compound 0.316 µM
[8] = second compound 0.1 µM, first compound 1 µM
[9] = second compound 0.316 µM, first compound 0.0316 µM
[10] = second compound 0.316 µM, first compound 0.1 µM
[11] = second compound 0.316 µM, first compound 0.316 µM
[12] = second compound 0.316 µM, first compound 1 µM
[13] = second compound 1 µM, first compound 0.0316 µM
[14] = second compound 1 µM, first compound 0.1 µM
[15] = second compound 1 µM, first compound 0.316 µM
[16] = second compound 1 µM, first compound 1 µM
[17] = second compound 3.16 µM, first compound 0.0316 µM
[18] = second compound 3.16 µM, first compound 0.1 µM
[19] = second compound 3.16 µM, first compound 0.316 µM
[20] = second compound 3.16 µM, first compound 1 µM
[21] = second compound 10 µM, first compound 0.0316 µM
[22] = second compound 10 µM, first compound 0.1 µM
[23] = second compound 10 µM, first compound 0.316 µM
[24] = second compound 10 µM, first compound 1 µM
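For viability, T/C in this document: spheroids exposed to drugs for seven days before readout.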

## O=C(c1cc(Cc2n[nH]c(=O)c3ccccc23)ccc1F)N1CCN(C(=O)C2CC2)CC1 + COC1C(OC(N)=O)C(O)C(Oc2ccc3c(O)c(NC(=O)c4ccc(O)c(CC=C(C)C)c4)c(=O)oc3c2C)OC1(C)C
Second compound 0.0316 µM
  IC50: > 10 µM
Second compound 0.1 µM
  IC50: > 10 µM
Second compound 0.316 µM
  IC50: > 10 µM
Second compound 1 µM
  IC50: > 10 µM
Second compound 3.16 µM
  IC50: > 10 µM
Second compound 10 µM
  IC50: > 10 µM
[1]
  viability, T/C: 81.4%
[2]
  viability, T/C: 94.9%
[3]
  viability, T/C: 76.9%
[4]
  viability, T/C: 82.5%
Second compound 0.0316 µM, first compound 3.16 µM
  viability, T/C: 80.7%
Second compound 0.0316 µM, first compound 10 µM
  viability, T/C: 63.8%
[5]
  viability, T/C: 76.2%
[6]
  viability, T/C: 98.7%
[7]
  viability, T/C: 90.2%
[8]
  viability, T/C: 71.9%
Second compound 0.1 µM, first compound 3.16 µM
  viability, T/C: 80.7%
Second compound 0.1 µM, first compound 10 µM
  viability, T/C: 61.6%
[9]
  viability, T/C: 91.8%
[10]
  viability, T/C: 71.1%
[11]
  viability, T/C: 97.9%
[12]
  viability, T/C: 81.5%
Second compound 0.316 µM, first compound 3.16 µM
  viability, T/C: 80.7%
Second compound 0.316 µM, first compound 10 µM
  viability, T/C: 73.5%
[13]
  viability, T/C: 83.3%
[14]
  viability, T/C: 85%
[15]
  viability, T/C: 92.8%
[16]
  viability, T/C: 92.3%
Second compound 1 µM, first compound 3.16 µM
  viability, T/C: 100%
Second compound 1 µM, first compound 10 µM
  viability, T/C: 63.6%
[17]
  viability, T/C: 71.1%
[18]
  viability, T/C: 81.7%
[19]
  viability, T/C: 106%
[20]
  viability, T/C: 76.5%
Second compound 3.16 µM, first compound 3.16 µM
  viability, T/C: 83.5%
Second compound 3.16 µM, first compound 10 µM
  viability, T/C: 66.1%
[21]
  viability, T/C: 91%
[22]
  viability, T/C: 72%
[23]
  viability, T/C: 96.1%
[24]
  viability, T/C: 80.6%
Second compound 10 µM, first compound 3.16 µM
  viability, T/C: 80.6%
Second compound 10 µM, first compound 10 µM
  viability, T/C: 61%

## C=CCn1c(=O)c2cnc(Nc3ccc(N4CCN(C)CC4)cc3)nc2n1-c1cccc(C(C)(C)O)n1 + Cc1cccc(N(C)C(=O)C2C(O)CCN2c2nc(C)cc(C(F)(F)F)c2C#N)c1
Second compound 0.0316 µM
  IC50: > 1 µM
Second compound 0.1 µM
  IC50: > 1 µM
Second compound 0.316 µM
  IC50: > 1 µM
Second compound 1 µM
  IC50: > 1 µM
Second compound 3.16 µM
  IC50: > 1 µM
Second compound 10 µM
  IC50: > 1 µM
Second compound 0.0316 µM, first compound 0.00316 µM
  viability, T/C: 108%
Second compound 0.0316 µM, first compound 0.01 µM
  viability, T/C: 88.7%
[1]
  viability, T/C: 95.2%
[2]
  viability, T/C: 111%
[3]
  viability, T/C: 105%
[4]
  viability, T/C: 81.8%
Second compound 0.1 µM, first compound 0.00316 µM
  viability, T/C: 111%
Second compound 0.1 µM, first compound 0.01 µM
  viability, T/C: 113%
[5]
  viability, T/C: 103%
[6]
  viability, T/C: 113%
[7]
  viability, T/C: 95.9%
[8]
  viability, T/C: 80.8%
Second compound 0.316 µM, first compound 0.00316 µM
  viability, T/C: 101%
Second compound 0.316 µM, first compound 0.01 µM
  viability, T/C: 103%
[9]
  viability, T/C: 108%
[10]
  viability, T/C: 93.3%
[11]
  viability, T/C: 89.3%
[12]
  viability, T/C: 73.7%
Second compound 1 µM, first compound 0.00316 µM
  viability, T/C: 86%
Second compound 1 µM, first compound 0.01 µM
  viability, T/C: 102%
[13]
  viability, T/C: 111%
[14]
  viability, T/C: 99.5%
[15]
  viability, T/C: 122%
[16]
  viability, T/C: 86%
Second compound 3.16 µM, first compound 0.00316 µM
  viability, T/C: 103%
Second compound 3.16 µM, first compound 0.01 µM
  viability, T/C: 105%
[17]
  viability, T/C: 104%
[18]
  viability, T/C: 112%
[19]
  viability, T/C: 113%
[20]
  viability, T/C: 89.3%
Second compound 10 µM, first compound 0.00316 µM
  viability, T/C: 105%
Second compound 10 µM, first compound 0.01 µM
  viability, T/C: 89%
[21]
  viability, T/C: 94.3%
[22]
  viability, T/C: 94.1%
[23]
  viability, T/C: 102%
[24]
  viability, T/C: 83.6%
